Entries after “also recorded” stand apart in the source; their conditions may differ.
Tests used:
mAb 64-3-7 = assay type: binding, murine; details: SPR, BIAcore T100; graded peptide concentrations 11, 33 and 100 μM; Figure 1B
mAb 64-3-7 Fab = assay: SPR direct binding of soluble 64-3-7 Fab to peptide coupled to a CM5 chip; parameters: species or system murine; details: similarly coupled peptide surface, data not shown
[1] = target: T1, H-2L^d octamer peptide EPQAPWME, residues 46-53 (mouse); assay: crystal structure
T1 chain: EPQAPWME

[2] = target: T2, H-2L^d heptamer peptide EPQAPWM (residues 46 to 52) (Mus musculus, H-2Ld); assay: SPR
T2 chain: EPQAPWM

[3] = target: T3, H-2L^d 6-mer peptide EPQAPW (Mus musculus, H-2Ld); assay: SPR
T3 chain: EPQAPW

Molecule: EPQAPW
- competition for antibody binding to pL^d35-55-coupled surface (mAb 64-3-7): intermediate activity

Molecule: EPQAPWM
- competition for antibody binding to pL^d35-55-coupled surface (mAb 64-3-7): compete effectively

Molecule: PQAPWM
- competition for antibody binding to pL^d35-55-coupled surface (mAb 64-3-7): intermediate activity; also recorded: only binds weakly

Molecule: QAPWM
- competition for antibody binding to pL^d35-55-coupled surface (mAb 64-3-7): fails to block

Molecule: RFDSDAENPRYEPRARWMEQE [pK^b35-55]
- direct binding of 64-3-7 Fab to peptide-coupled biosensor surface (mAb 64-3-7 Fab): no detectable binding

Molecule: SNVREIKNRWRSTVQKLK [control peptide, reference compound]
- direct binding of 64-3-7 Fab to peptide-coupled biosensor surface (mAb 64-3-7 Fab): no detectable binding

B1: Fab fragment of mAb 64-3-7 (Fab, V domains shown)
VH: EVKLVESEGGLVQPGSSMKLSCTASGFTFSDYYMAWVRQVPEKGLEWVANINYDGSSTYYLDSLKGRFIISRDIAKNILYLQMSSLRCEDTATYYCARLTNGYLDVWGAGTTVTVSS
VL: DVVMTQTPLSLPVSLGDQASISCRSSQSLVHSNGNTYLHWYLQKPGQSPNLLIYKVSNRFSGVPDRFSGSGSGTDFTLKISRVEAEDLGVYFCSQSTHVPTFGGGTKLEIK
- binding result [1]: binds

B2: mAb 64-3-7 (antibody, V domains shown)
VH: B1 VH
VL: B1 VL
- binding result [2]: binds
- binding result [3]: binds

— paper PMC3422668 (Journal of immunology (Baltimore, Md. : 1950), 2012)
